{"source": "patent US8088800B2", "about": "“4-(5-aminomethyl)-indole-1-ylmethyl)-benzamide derivatives and related compounds as opioid receptor antagonists for the treatment of obesity” (Eli Lilly and Company, priority 2004, dated 2012)", "key": {"kappa opioid receptor": {"biological_target": "kappa opioid receptor (Homo sapiens, UniProt P41145)", "sequence (P41145 whole entry)": "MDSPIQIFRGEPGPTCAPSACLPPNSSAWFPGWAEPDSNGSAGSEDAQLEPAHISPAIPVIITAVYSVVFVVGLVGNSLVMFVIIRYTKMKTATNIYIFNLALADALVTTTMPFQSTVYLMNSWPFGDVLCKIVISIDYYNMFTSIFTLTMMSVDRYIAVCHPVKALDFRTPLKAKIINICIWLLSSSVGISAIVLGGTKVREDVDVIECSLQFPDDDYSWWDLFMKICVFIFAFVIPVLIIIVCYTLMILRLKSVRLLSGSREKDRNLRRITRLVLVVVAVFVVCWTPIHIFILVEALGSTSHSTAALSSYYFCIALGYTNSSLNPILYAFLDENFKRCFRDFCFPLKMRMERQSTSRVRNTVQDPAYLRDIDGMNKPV", "test": "opioid receptor binding assay (Ki), kappa"}, "[1]": {"biological_target": "T1, cloned human delta opioid receptor (Homo sapiens, UniProt P41143)", "T1 construct": "expressed in transfected cells", "T1 sequence (P41143 whole entry)": "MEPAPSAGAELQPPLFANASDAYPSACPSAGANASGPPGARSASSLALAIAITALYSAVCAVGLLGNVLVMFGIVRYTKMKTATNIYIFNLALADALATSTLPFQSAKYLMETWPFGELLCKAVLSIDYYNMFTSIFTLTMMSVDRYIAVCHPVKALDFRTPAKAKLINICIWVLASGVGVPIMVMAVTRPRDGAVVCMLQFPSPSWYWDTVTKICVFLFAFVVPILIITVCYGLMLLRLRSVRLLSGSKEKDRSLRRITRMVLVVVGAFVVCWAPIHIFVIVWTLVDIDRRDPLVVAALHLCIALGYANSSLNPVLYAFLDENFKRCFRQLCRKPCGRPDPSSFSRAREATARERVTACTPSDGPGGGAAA", "test": "GTP-γ-S binding assay, antagonist potency (Kb), delta", "type": "biochemical", "conditions": "functional antagonist potency vs DPDPE 30 nM; Cheng-Prusoff", "description": "(§1) The functional antagonist potency (Kb) of the sample compounds was determined using the GTPγS binding assay. GTPgS-based functional assays provide an in vitro measure of the activity of opioid agonists and antagonists. Opioid reference compounds or test compound are incubated with membrane homogenate from cells expressing the cloned human mu, kappa or delta opioid receptor and radiolabeled [35S]GTPgS. If the compound activates the opioid receptor, an increase in the binding of radiolabeled GTPgS is observed. […] These tests provide an in vitro measurement of the activity of the compound at human opioid receptors.\n(§2) An SPA-based GTP-γ-S assay format was developed based on previous opioid (Emmerson et al., J. Pharm Exp Ther 278,1121,1996; Horng et al., Society for Neuroscience Abstracts, 434.6, 2000) and muscarinic (DeLapp et al., JPET 289, 946, 1999) assay formats. Membranes were resuspended in 20 mM HEPES, 100 mM NaCl, 5 mM MgCl2, 1 mM DTT, and 1 mM EDTA. Fifty (50) […] of GTP-γ-[35S], compound, membrane suspension (20 microgram/well), and wheat germ agglutinin coated SPA beads (1 mg/well) were added to clear bottom 96 well assay plates. GDP ([…]) was added to the membrane solution prior to addition to the assay plates. Plates were sealed and incubated for four hours at room temperature then placed in a refrigerator overnight to allow the beads to settle. Signal stability at 4° C. was determined to be >60 hours. Plates were warmed to room temperature and counted in a Wallac Microbeta scintillation counter. For antagonist assays, specific agonists were added at the following concentrations: (MOR) DAMGO 1 micromolar, (DOR) DPDPE 30 nM, (KOR) U69593 300 nM. Kb's were determined by Cheng-Prusoff equation (see Cheng and Prusoff, Biochem. Pharmacol. 22, 3099, 1973)."}, "[2]": {"biological_target": "T2, cloned human kappa opioid receptor (Homo sapiens, UniProt P41145)", "T2 construct": "expressed in transfected cells", "T2 sequence (P41145 whole entry)": "as the sequence (P41145 whole entry) above", "test": "GTP-γ-S binding assay, antagonist potency (Kb), kappa", "type": "biochemical", "conditions": "functional antagonist potency vs U69593 300 nM; Cheng-Prusoff", "description": "as §1, §2"}, "[3]": {"biological_target": "T3, cloned human mu opioid receptor (Homo sapiens, UniProt P35372)", "T3 construct": "expressed in transfected cells", "T3 sequence (P35372 whole entry)": "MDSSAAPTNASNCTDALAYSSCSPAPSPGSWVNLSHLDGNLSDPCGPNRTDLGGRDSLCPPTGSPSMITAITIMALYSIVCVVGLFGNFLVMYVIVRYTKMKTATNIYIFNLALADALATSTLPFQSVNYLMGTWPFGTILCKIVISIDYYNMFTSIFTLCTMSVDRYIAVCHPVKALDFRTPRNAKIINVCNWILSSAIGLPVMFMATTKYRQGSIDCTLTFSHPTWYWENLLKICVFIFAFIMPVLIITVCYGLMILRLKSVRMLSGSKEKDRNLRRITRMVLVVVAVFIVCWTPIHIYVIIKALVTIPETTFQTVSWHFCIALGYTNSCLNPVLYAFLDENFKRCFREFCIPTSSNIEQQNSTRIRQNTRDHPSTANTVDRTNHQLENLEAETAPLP", "test": "GTP-γ-S binding assay, antagonist potency (Kb), mu", "type": "biochemical", "conditions": "functional antagonist potency vs DAMGO 1 micromolar; Cheng-Prusoff", "description": "as §1, §2"}, "mu opioid receptor": {"biological_target": "mu opioid receptor (Homo sapiens, UniProt P35372)", "sequence (P35372 whole entry)": "as above", "test": "opioid receptor binding assay (Ki), mu"}, "delta opioid receptor": {"biological_target": "delta opioid receptor (Homo sapiens, UniProt P41143)", "sequence (P41143 whole entry)": "as the sequence (P41143 whole entry) above", "test": "opioid receptor binding assay (Ki), delta"}}, "data": [{"smiles": "CC(C)CCNCc1ccc2c(ccn2Cc2ccc(C(N)=O)cc2)c1", "note": "[Example 1, 4-{5-[(3-Methyl-butylamino)-methyl]-indol-1-ylmethyl}-benzamide]", "values": [{"measurement": "Ki", "setting": "kappa opioid receptor", "result": 362, "unit": "nM"}, {"measurement": "Kb", "setting": "[1]", "result": 21.7, "unit": "nM"}, {"measurement": "Kb", "setting": "[2]", "result": 59.9, "unit": "nM"}, {"measurement": "Kb", "setting": "[3]", "result": 4.2, "unit": "nM"}, {"measurement": "Ki", "setting": "mu opioid receptor", "result": 18.1, "unit": "nM"}, {"measurement": "Ki", "setting": "delta opioid receptor", "result": 170, "unit": "nM"}]}, {"smiles": "CC(C)CCNCc1ccc2c(c1)CCN2Cc1ccc(C(N)=O)cc1", "note": "[Example 5, 4-{5-[(3-Methyl-butylamino)-methyl]-2,3-dihydro-indol-1-ylmethyl}-benzamide]", "values": [{"measurement": "Ki", "setting": "kappa opioid receptor", "result": 387, "unit": "nM"}, {"measurement": "Kb", "setting": "[1]", "result": 24.3, "unit": "nM"}, {"measurement": "Kb", "setting": "[2]", "result": "> 42", "unit": "nM"}, {"measurement": "Kb", "setting": "[3]", "result": 3.3, "unit": "nM"}, {"measurement": "Ki", "setting": "mu opioid receptor", "result": 24.5, "unit": "nM"}, {"measurement": "Ki", "setting": "delta opioid receptor", "result": 259, "unit": "nM"}]}, {"smiles": "NC(=O)c1ccc(Cn2ccc3cc(CNCCCc4ccccc4)ccc32)cc1", "note": "[Example 8, 4-{5-[(3-Phenyl-propylamino)-methyl]-indol-1-ylmethyl}-benzamide]", "values": [{"measurement": "Ki", "setting": "kappa opioid receptor", "result": 304, "unit": "nM"}, {"measurement": "Ki", "setting": "mu opioid receptor", "result": 59.3, "unit": "nM"}, {"measurement": "Ki", "setting": "delta opioid receptor", "result": 633, "unit": "nM"}]}, {"smiles": "COc1ccc(CCNCc2ccc3c(ccn3Cc3ccc(C(N)=O)cc3)c2)cc1", "note": "[Example 11, 4-(5-{[2-(4-Methoxy-phenyl)-ethylamino]-methyl}-indol-1-ylmethyl)-benzamide]", "values": [{"measurement": "Ki", "setting": "kappa opioid receptor", "result": 1110, "unit": "nM"}, {"measurement": "Kb", "setting": "[1]", "result": "> 50", "unit": "nM"}, {"measurement": "Kb", "setting": "[2]", "result": "> 42", "unit": "nM"}, {"measurement": "Kb", "setting": "[3]", "result": 8.4, "unit": "nM"}, {"measurement": "Ki", "setting": "mu opioid receptor", "result": 319, "unit": "nM"}, {"measurement": "Ki", "setting": "delta opioid receptor", "result": 2550, "unit": "nM"}]}, {"smiles": "CCCCCCNCc1ccc2c(ccn2Cc2ccc(C(N)=O)cc2)c1", "note": "[Example 7, 4-(5-Hexylaminomethyl-indol-1-ylmethyl)-benzamide]", "values": [{"measurement": "Ki", "setting": "kappa opioid receptor", "result": 345, "unit": "nM"}, {"measurement": "Kb", "setting": "[1]", "result": 27.4, "unit": "nM"}, {"measurement": "Kb", "setting": "[2]", "result": "> 35", "unit": "nM"}, {"measurement": "Kb", "setting": "[3]", "result": 5.8, "unit": "nM"}, {"measurement": "Ki", "setting": "mu opioid receptor", "result": 22.1, "unit": "nM"}, {"measurement": "Ki", "setting": "delta opioid receptor", "result": 176, "unit": "nM"}]}, {"smiles": "NC(=O)c1ccc(CN2CCc3cc(CNCCc4cccs4)ccc32)cc1", "note": "[Example 4, 4-{5-[(2-Thiophen-2-yl-ethylamino)-methyl]-2,3-dihydro-indol-1-ylmethyl}-benzamide]", "values": [{"measurement": "Ki", "setting": "kappa opioid receptor", "result": 226, "unit": "nM"}, {"measurement": "Kb", "setting": "[1]", "result": 19.2, "unit": "nM"}, {"measurement": "Kb", "setting": "[2]", "result": "> 42", "unit": "nM"}, {"measurement": "Kb", "setting": "[3]", "result": 2.1, "unit": "nM"}, {"measurement": "Ki", "setting": "mu opioid receptor", "result": 13.4, "unit": "nM"}, {"measurement": "Ki", "setting": "delta opioid receptor", "result": 111, "unit": "nM"}]}, {"smiles": "CC(C)(C)CCNCc1ccc2c(ccn2Cc2ccc(C(N)=O)cc2)c1", "note": "[Example 3, 4-{5-[(3,3-Dimethyl-butylamino)-methyl]-indol-1-ylmethyl}-benzamide]", "values": [{"measurement": "Ki", "setting": "kappa opioid receptor", "result": 106, "unit": "nM"}, {"measurement": "Kb", "setting": "[1]", "result": 19.2, "unit": "nM"}, {"measurement": "Kb", "setting": "[2]", "result": 50.5, "unit": "nM"}, {"measurement": "Kb", "setting": "[3]", "result": 4.4, "unit": "nM"}, {"measurement": "Ki", "setting": "mu opioid receptor", "result": 15.6, "unit": "nM"}, {"measurement": "Ki", "setting": "delta opioid receptor", "result": 98.2, "unit": "nM"}]}, {"smiles": "NC(=O)c1ccc(Cn2ccc3cc(CNCCc4ccccc4F)ccc32)cc1", "note": "[Example 9, 4-(5-{[2-(2-Fluoro-phenyl)-ethylamino]-methyl}-indol-1-ylmethyl)-benzamide]", "values": [{"measurement": "Ki", "setting": "kappa opioid receptor", "result": 332, "unit": "nM"}, {"measurement": "Kb", "setting": "[1]", "result": 20.7, "unit": "nM"}, {"measurement": "Kb", "setting": "[2]", "result": "> 35", "unit": "nM"}, {"measurement": "Kb", "setting": "[3]", "result": 6.2, "unit": "nM"}, {"measurement": "Ki", "setting": "mu opioid receptor", "result": 20.8, "unit": "nM"}, {"measurement": "Ki", "setting": "delta opioid receptor", "result": 144, "unit": "nM"}]}, {"smiles": "CC(C)(C)CCNCc1ccc2c(c1)CCN2Cc1ccc(C(N)=O)cc1", "note": "[Example 6, 4-{5-[(3,3-Dimethyl-butylamino)-methyl]-2,3-dihydro-indol-1-ylmethyl}-benzamide]", "values": [{"measurement": "Ki", "setting": "kappa opioid receptor", "result": 340, "unit": "nM"}, {"measurement": "Kb", "setting": "[1]", "result": 20.3, "unit": "nM"}, {"measurement": "Kb", "setting": "[2]", "result": 21.4, "unit": "nM"}, {"measurement": "Kb", "setting": "[3]", "result": 4, "unit": "nM"}, {"measurement": "Ki", "setting": "mu opioid receptor", "result": 20.5, "unit": "nM"}, {"measurement": "Ki", "setting": "delta opioid receptor", "result": 193, "unit": "nM"}]}, {"smiles": "NC(=O)c1ccc(Cn2ccc3cc(CNCCc4cccs4)ccc32)cc1", "note": "[Example 2, 4-{5-[(2-Thiophen-2-yl-ethylamino)-methyl]-indol-1-ylmethyl}-benzamide]", "values": [{"measurement": "Ki", "setting": "kappa opioid receptor", "result": 411, "unit": "nM"}, {"measurement": "Kb", "setting": "[1]", "result": 15, "unit": "nM"}, {"measurement": "Kb", "setting": "[2]", "result": 50.1, "unit": "nM"}, {"measurement": "Kb", "setting": "[3]", "result": 2, "unit": "nM"}, {"measurement": "Ki", "setting": "mu opioid receptor", "result": 21.3, "unit": "nM"}, {"measurement": "Ki", "setting": "delta opioid receptor", "result": 154, "unit": "nM"}]}, {"smiles": "NC(=O)c1ccc(Cn2ccc3cc(CNCCO)ccc32)cc1", "note": "[Example 10, 4-{5-[(2-Hydroxy-ethylamino)-methyl]-indol-1-ylmethyl}-benzamide]", "values": [{"measurement": "Ki", "setting": "kappa opioid receptor", "result": 3190, "unit": "nM"}, {"measurement": "Ki", "setting": "mu opioid receptor", "result": 478, "unit": "nM"}, {"measurement": "Ki", "setting": "delta opioid receptor", "result": "> 5000", "unit": "nM"}]}]}
